In patent US7803793B2, “Heterocyclic derived metalloprotease inhibitors” (Janssen Pharmaceutica NV, priority 2006, dated 2010):
pIC50: −log10 of the molar value. Read-outs that look alike come from different tables or passages of the source.

Tests used:
MMP-2 = biological target: T1, MMP-2 (Homo sapiens, UniProt P08253); assay: MMP enzymatic assay (Trupoint peptide), MMP-2; type: biochemical
T1 construct: Human MMP-2 full length (aa 1-660)
T1 sequence (P08253 30-660): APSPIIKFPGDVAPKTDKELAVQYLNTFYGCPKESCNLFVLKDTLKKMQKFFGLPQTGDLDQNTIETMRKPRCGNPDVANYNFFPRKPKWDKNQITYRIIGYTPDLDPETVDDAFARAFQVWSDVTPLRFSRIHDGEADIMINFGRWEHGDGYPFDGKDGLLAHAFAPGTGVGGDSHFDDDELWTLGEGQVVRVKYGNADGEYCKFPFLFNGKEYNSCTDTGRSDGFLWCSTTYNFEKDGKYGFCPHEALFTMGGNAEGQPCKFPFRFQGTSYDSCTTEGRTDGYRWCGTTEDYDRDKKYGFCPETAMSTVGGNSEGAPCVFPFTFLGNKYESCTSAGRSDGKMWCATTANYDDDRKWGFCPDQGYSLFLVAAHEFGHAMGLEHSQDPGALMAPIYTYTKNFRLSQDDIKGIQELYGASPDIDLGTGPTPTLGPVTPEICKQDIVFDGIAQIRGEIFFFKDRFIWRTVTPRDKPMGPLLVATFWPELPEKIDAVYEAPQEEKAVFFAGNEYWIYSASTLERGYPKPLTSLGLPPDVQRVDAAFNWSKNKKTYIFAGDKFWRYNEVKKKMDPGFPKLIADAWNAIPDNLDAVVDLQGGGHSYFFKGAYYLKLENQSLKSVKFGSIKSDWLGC

MMP-9 = biological target: T2, MMP-9 (Homo sapiens, UniProt P14780); assay: MMP enzymatic assay (Trupoint peptide), MMP-9; type: biochemical
T2 construct: Human MMP-9 catalytic domain (aa 107-446)
T2 sequence (P14780 107-446): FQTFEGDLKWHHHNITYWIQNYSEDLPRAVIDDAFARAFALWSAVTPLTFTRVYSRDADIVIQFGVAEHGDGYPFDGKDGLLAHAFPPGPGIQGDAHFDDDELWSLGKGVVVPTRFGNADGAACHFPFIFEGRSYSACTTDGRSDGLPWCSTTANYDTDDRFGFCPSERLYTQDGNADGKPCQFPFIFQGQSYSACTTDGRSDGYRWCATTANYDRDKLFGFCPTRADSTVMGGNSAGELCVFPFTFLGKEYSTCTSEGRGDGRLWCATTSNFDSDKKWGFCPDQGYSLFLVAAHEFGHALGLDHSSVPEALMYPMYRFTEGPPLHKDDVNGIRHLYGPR

Row | Molecule | pIC50 (MMP-2; read-out: MMP-2 nM IC50) | pIC50 (MMP-9) | pIC50 (MMP-2)
1 | O=c1c(NS(=O)(=O)c2ccc(Oc3ccc(Cl)cc3)cc2)cccn1O [Compound 37, 4-(4-Chloro-phenoxy)-N-(1-hydroxy-2-oxo-1,2-dihydro-pyridin-3-yl)-benzene-sulfonamide] | 6.62 | 6.50 | –
2 | CS(=O)(=O)N(Cc1cccn(O)c1=O)c1ccc(Oc2ccc(Cl)cc2)cc1 [Compound 44, N-[4-(4-Chloro-phenoxy)-phenyl]-N-(1-hydroxy-2-oxo-1,2-dihydro-pyridin-3-ylmethyl)-methanesulfonamide] | – | 6.90 | 6.39
3 | O=C1[C@H](NS(=O)(=O)c2ccc(Oc3ccc(Cl)cc3)cc2)CC=C(CN2CCOCC2)CN1O [Compound 19, 4-(4-Chloro-phenoxy)-N-(1-hydroxy-6-morpholin-4-ylmethyl-2-oxo-2,3,4,7-tetrahydro-1H-azepin-3-(R)-yl)-benzenesulfonamide] | – | 9.11 | 9.41
4 | CN(c1cccn(O)c1=O)S(=O)(=O)c1ccc(Oc2ccc(OC(F)(F)F)cc2)cc1 [Compound 39, N-(1-Hydroxy-2-oxo-1,2-dihydro-pyridin-3-yl)-N-methyl-4-(4-trifluoro-methoxy-phenoxy)-benzenesulfonamide] | 8.24 | 8.73 | –
5 | Cc1ccc(Oc2ccc(N(Cc3cccn(O)c3=O)S(C)(=O)=O)cc2)cc1 [Compound 42, N-(1-Hydroxy-2-oxo-1,2-dihydro-pyridin-3-ylmethyl)-N-(4-p-tolyloxy-phenyl)-methanesulfonamide] | – | 7.33 | 6.68
6 | COc1ccc(Oc2ccc(S(=O)(=O)N(C)c3cccn(O)c3=O)cc2)cc1 [Compound 29, N-(1-Hydroxy-2-oxo-1,2-dihydro-pyridin-3-yl)-4-(4-methoxy-phenoxy)-N-methyl-benzenesulfonamide] | 8.25 | 9.06 | –
7 | Cc1ccc(Oc2ccc(N(C(C)c3cccn(O)c3=O)S(C)(=O)=O)cc2)cc1 (centres unmarked) [Compound 50, N-[1-(1-Hydroxy-2-oxo-1,2-dihydro-pyridin-3-yl)-ethyl]-N-(4-p-tolyloxy-phenyl)-methanesulfonamide] | – | 6.65 | 5.59
8 | 4-(4-Chloro-phenoxy)-N-(1-hydroxy-2-oxo-2,3,4,7-tetrahydro-1H-azepin-3-(R)-yl)-benzenesulfonamide [Compound 1] | 9.09 | 9.11 | –
9 | O=C1[C@H](NS(=O)(=O)c2ccc(N3CCN(c4ccccc4)CC3)cc2)CC=CCN1O [Compound 10, N-(1-Hydroxy-2-oxo-2,3,4,7-tetrahydro-1H-azepin-3-(R)-yl)-4-(4-phenyl-piperazin-1-yl)-benzenesulfonamide] | – | < 6.00 | < 6.00
10 | CS(=O)(=O)N(Cc1cccn(O)c1=O)c1ccc(Oc2ccc(C(F)(F)F)cc2)cc1 [Compound 43, N-(1-Hydroxy-2-oxo-1,2-dihydro-pyridin-3-ylmethyl)-N-[4-(4-trifluoromethyl-phenoxy)-phenyl]-methanesulfonamide] | – | 6.63 | 6.31
11 | Cc1ccc(N(C)S(=O)(=O)c2ccc(Oc3ccc(Cl)cc3)cc2)c(=O)n1O [Compound 33, 4-(4-Chloro-phenoxy)-N-(1-hydroxy-6-methyl-2-oxo-1,2-dihydro-pyridin-3-yl)-N-methyl-benzenesulfonamide] | 7.18 | 7.46 | –
12 | Cc1ccc(Oc2ccc(N(Cc3c(C)ccn(O)c3=O)S(C)(=O)=O)cc2)cc1 [Compound 48, N-(1-Hydroxy-4-methyl-2-oxo-1,2-dihydro-pyridin-3-ylmethyl)-N-(4-p-tolyloxy-phenyl)-methanesulfonamide] | – | 6.34 | < 6.00
13 | CN(c1cccn(O)c1=O)S(=O)(=O)c1ccc(Oc2ccccc2)cc1 [Compound 25, N-(1-Hydroxy-2-oxo-1,2-dihydro-pyridin-3-yl)-N-methyl-4-phenoxy-benzene-sulfonamide] | – | 8.85 | 8.82
14 | CC1CN(CC2=CC[C@@H](NS(=O)(=O)c3ccc(Oc4ccc(Cl)cc4)cc3)C(=O)N(O)C2)CC(C)O1 (stereo partly drawn) [Compound 21, (R)-4-(4-Chloro-phenoxy)-N-[6-(2,6-dimethyl-morpholin-4-ylmethyl)-1-hydroxy-2-oxo-2,3,4,7-tetrahydro-1H-azepin-3-yl]-benzenesulfonamide] | – | 9.05 | 8.90
15 | O=C1[C@H](NS(=O)(=O)c2ccc(N3CCC(c4ccccc4)CC3)cc2)CC=CCN1O [Compound 9, N-(1-Hydroxy-2-oxo-2,3,4,7-tetrahydro-1H-azepin-3-(R)-yl)-4-(4-phenyl-piperidin-1-yl)-benzenesulfonamide] | – | < 6.00 | < 6.00
16 | Cc1ccc(Oc2ccc(N(Cc3cccn(O)c3=S)S(C)(=O)=O)cc2)cc1 [Compound 47, N-(1-Hydroxy-2-thioxo-1,2-dihydro-pyridin-3-ylmethyl)-N-(4-p-tolyloxy-phenyl)-methanesulfonamide] | – | 6.31 | < 6.00
17 | Cc1ccc(Oc2ccc(S(=O)(=O)N(CCN3CCOCC3)c3cccn(O)c3=O)cc2)cc1 [Compound 34, N-(1-Hydroxy-2-oxo-1,2-dihydro-pyridin-3-yl)-N-(2-morpholin-4-yl-ethyl)-4-p-tolyloxy-benzenesulfonamide] | – | 8.62 | 8.46
18 | CCCCOc1ccc(N(Cc2cccn(O)c2=O)S(C)(=O)=O)cc1 [Compound 46, N-(4-Butoxy-phenyl)-N-(1-hydroxy-2-oxo-1,2-dihydro-pyridin-3-ylmethyl)-methanesulfonamide] | – | < 6.00 | < 6.00
19 | O=C1[C@H](NS(=O)(=O)c2ccc(Oc3ccc(C(F)(F)F)cc3)cc2)CC=CCN1O [Compound 5, N-(1-Hydroxy-2-oxo-2,3,4,7-tetrahydro-H-azepin-3-(R)-yl)-4-(4-trifluoro-methyl-phenoxy)-benzenesulfonamide] | – | 8.69 | 8.75
20 | CN1CCN(CCN([C@@H]2CC=CCN(O)C2=O)S(=O)(=O)c2ccc(Oc3ccc(Cl)cc3)cc2)CC1 [Compound 14, 4-(4-Chloro-phenoxy)-N-(1-hydroxy-2-oxo-2,3,4,7-tetrahydro-1H-azepin-3-(R)-yl)-N-[2-(4-methyl-piperazin-1-yl)-ethyl]-benzenesulfonamide] | – | 9.70 | 9.31

Other lines, results leading:

Row | pIC50 (MMP-2; read-out: MMP-2 nM IC50) | pIC50 (MMP-9) | pIC50 (MMP-2) | Molecule
21 | 7.07 | 7.25 | – | COc1ccc(Oc2ccc(S(=O)(=O)Cn3cccc(O)c3=O)cc2)cc1 [Compound 66, 3-Hydroxy-1-[4-(4-methoxy-phenoxy)-benzenesulfonylmethyl]-1H-pyridin-2-one]
22 | – | < 6.00 | < 6.00 | O=C1C(S(=O)(=O)c2ccc(-c3nc4cc(C(F)(F)F)ccc4[nH]3)cc2)CCCCN1O (centres unmarked) [Compound 74, 1-Hydroxy-3-[4-(5-trifluoromethyl-1H-benzoimidazol-2-yl)-benzenesulfonyl]-azepan-2-one]
23 | – | 6.13 | 7.33 | O=C1[C@H](NS(=O)(=O)c2ccc(Oc3ccc(C(F)(F)F)cc3)cc2)CCCN1O [Compound 58, (R)—N-(1-Hydroxy-2-oxo-piperidin-3-yl)-4-(4-trifluoromethyl-phenoxy)-benzenesulfonamide]
24 | – | < 6.00 | < 6.00 | N#Cc1ccc(-c2ccc(S(=O)(=O)C3CCCCN(O)C3=O)cc2)cc1 (centres unmarked) [Compound 84, 4′-(1-Hydroxy-2-oxo-azepane-3-sulfonyl)-biphenyl-4-carbonitrile]
25 | – | 9.22 | 8.66 | Cc1ccc(C#Cc2ccc(S(=O)(=O)N(CCN3CCOCC3)C3CC=CCN(O)C3=O)s2)cc1 (centres unmarked) [Compound 91]
26 | – | 6.39 | 5.90 | CN1CCCN(O)C(=O)[C@@H]1CN(c1ccc(Oc2ccc(C(F)(F)F)cc2)cc1)S(C)(=O)=O [Compound 68, (3S)-1-Hydroxy-3-{N-methanesulfonyl-N-[4-(4-trifluoromethylphenoxy)-phenyl]amino}methyl-4-methyl-1,4-diazepan-2-one]
27 | – | 6.18 | < 6.00 | O=c1c(O)cccn1CS(=O)(=O)c1ccc(Br)s1 [Compound 63, 1-(5-Bromo-thiophene-2-sulfonylmethyl)-3-hydroxy-1H-pyridin-2-one]
28 | 6.33 | 5.97 | – | Cc1ccc(S(=O)(=O)Cn2cccc(O)c2=O)cc1 [Compound 60, 3-Hydroxy-1-(toluene-4-sulfonylmethyl)-1H-pyridin-2-one]
29 | 8.30 | 8.38 | – | O=c1c(N(CCN2CCOCC2)S(=O)(=O)c2ccc(Oc3ccc(Cl)cc3)cc2)cccn1O [Compound 87, 4-(4-Chloro-phenoxy)-N-(1-hydroxy-2-oxo-1,2-dihydro-pyridin-3-yl)-N-(2-morpholin-4-yl-ethyl)-benzenesulfonamide]
30 | – | 8.31 | 7.87 | O=c1c(O)cccn1CS(=O)(=O)c1ccc(Oc2ccc(OC(F)(F)F)cc2)cc1 [Compound 62, 3-Hydroxy-1-[4-(4-trifluoromethoxy-phenoxy)-benzenesulfonylmethyl]-1H-pyridin-2-one]
31 | – | < 5.00 | < 5.00 | Cc1ccc(C#Cc2ccc(N(Cc3cccn(O)c3=O)S(C)(=O)=O)cc2)cc1 [Compound 55, N-(1-Hydroxy-2-oxo-1,2-dihydro-pyridin-3-ylmethyl)-N-(4-p-tolylethynyl-phenyl)-methanesulfonamide]
